Results published in PMC5073322, “Novel Natural Product-like Caged Xanthones Bearing a Carbamate Moiety Exhibit Antitumor Potency and Anti-Angiogenesis Activity In vivo” (Scientific Reports, 2016).
Converted amounts (≈) assume the structure as drawn. Like-named read-outs stand apart in the source and are kept apart here.

Experiments:
Water solubility by HPLC = format: physicochemical; details: thermodynamic from solid, deionized water, stirred overnight, HPLC 290 nm, read-out: S, water solubility
Excerpt: The physicochemical characteristics of compounds directly determine their potential drug-like properties. Assessing a compound’s physicochemical properties before performing in vivo evaluations can guide further studies and minimize the time and cost associated with drug discovery. Therefore, parallel to the in vivo study, these solubilities of these compounds in water were experimentally measured using high-performance liquid chromatography (HPLC). Based on the results of full wave scanning, 290 nm was chosen as the maximum absorption wavelength for HPLC detection.
(§1) A HPLC system with an ultraviolet (UV) detector was used to detect the solubility of the compounds. The optimal wavelength was 290 nm. Ethanol/water (85:15) was an efficient eluent at a flow rate of 0.5 mL/min. The compounds were stirred in deionized water overnight to maximize the retention of the compounds in solution. Then, the solutions were filtered and the supernatant was used as a fluid sample for HPLC detection. The permeability (Pe) of some of the compounds was tested with the help of a standard PAMPA (pION), as previously reported. PAMPA was performed on a PAMPA Explorer instrument (pION, Inc., Woburn, MA) with the PAMPA Explorer command software (Version 3.7.4.1). The compounds were diluted to 10 mM with the system solution buffer (pH 7.4). Then, 150 μL of the diluted compound solution was transferred to a UV plate, and the UV spectrum was collected and used as a reference. Then, paint the membrane with 5 μL of gastrointestinal tract (GIT) lipid. The acceptor chamber was filled with 200 μL of acceptor solution buffer, and the donor chamber was filled with 200 μL of diluted compound solution. The PAMPA sandwich was assembled and left at 25 °C for 4 h. The UV spectra (240–500 nm) from the donor and the acceptor were collected. The permeability coefficient was calculated with the PAMPA Explorer Command software (Version 3.7.4.1) based on the area under the curve (AUC) of the reference plate, the donor plate, and the acceptor plate. The permeability coefficient of the compound was tested for four times, and the data are shown as the average values. Ketoprofen (4.5×10^−6 cm/s) and propranolol (112.8×10^−6 cm/s) were used as the standards in this assay.

HepG2 = test: MTT antiproliferative assay, HepG2; details: Homo sapiens, HepG2, 72 h
HCT116 = test: MTT antiproliferative assay, HCT116; details: Homo sapiens, HCT-116, 72 h
Procedure: (§2) The inhibition of tumour cell growth was measured by a modified tetrazolium (MTT) salt assay, as previously described[39]. Cells were cultured in a 96-well plate and treated with culture medium alone or different concentrations of the compounds. The cells were incubated for 72 h, and then, the MTT assay reagent was added. After a 4 h incubation, the formazan product was quantitated at 570 nm. The IC50 values (the concentrations that gave rise to 50% inhibition of cell viability) were calculated using GraphPad Prism 6 using a variable slope (four parameters).

MDA-MB-231 = test: MTT antiproliferative assay, MDA-MB-231; details: Homo sapiens, MDA-MB-231, 72 h
A549/taxol = test: MTT antiproliferative assay, Taxol-resistant A549; format: cell-based; details: 72 h, Taxol-resistant A549
Procedure: as §2

A549/cisplatin = test: MTT antiproliferative assay, cisplatin-resistant A549; format: cell-based; details: Homo sapiens
Procedure: as §2

A549 = test: MTT antiproliferative assay, A549; details: Homo sapiens, A549, 72 h
Procedure: as §2

[1] = Parallel artificial membrane permeability assay (PAMPA); format: in vitro ADME; details: PAMPA, different pH values (Fig. 5)
Procedure: Permeability is another important property that reflects the ability of molecules to diffuse through cell membranes. The permeability coefficients were determined using a standard parallel artificial membrane permeability assay (PAMPA) on a PAMPA Explorer instrument (Pion, Inc., MA, USA)[34].
as §1, with “The compounds were diluted to 10 mM with the system solution buffer (pH 7.4).” left out

[2] = A549/Taxol, read-out: IC50 A549/taxol, MTT, 72 h
[3] = A549, 72 h, read-out: IC50 A549/cisplatin, MTT, 72 h
[4] = read-out: IC50 HepG2, MTT, 72 h
[5] = read-out: IC50 HCT116, MTT, 72 h
[6] = read-out: IC50 MDA-MB-231, MTT, 72 h
[7] = MTT, 72 h, read-out: IC50 A549/cisplatin

Row | Compound | solubility (Water solubility by HPLC) [µM] | IC50 (HepG2; read-out: IC50 HepG2) [nM] | IC50 (HCT116; read-out: IC50 HCT116) [nM] | IC50 (MDA-MB-231; read-out: IC50 MDA-MB-231) [nM] | IC50 (A549/taxol; MTT, read-out: IC50 A549/taxol) [nM] | IC50 (A549/cisplatin; [7]) [nM] | IC50 (A549; read-out: IC50 A549) [nM] | IC50 (A549/taxol; [2]) [nM] | IC50 (A549/cisplatin; [3]) [nM] | solubility (Water solubility by HPLC; water) [µM] | IC50 (A549; read-out: IC50 A549, MTT, 72 h) [nM] | IC50 (HepG2; [4]) [nM] | IC50 (HCT116; [5]) [nM] | IC50 (MDA-MB-231; [6]) [nM] | permeability relative to DDO-6101 and GA [1]
1 | CC(C)=CCC12OC(C)(C)C3CC(C=C4C(=O)c5c(cccc5OS(C)(=O)=O)OC431)C2=O (stereo not drawn) [Compound 2] | 20 (≈ 9.17 µg/mL) | 1410 ± 60 | 2120 ± 140 | 2000 ± 70 | – | – | – | – | – | – | – | – | – | – | –
2 | CCOC(=O)COc1cccc2c1C(=O)C1=CC3CC4C(C)(C)OC(CC=C(C)C)(C3=O)C14O2 (stereo not drawn) [Compound 4] | 10 (≈ 4.67 µg/mL) | 12700 ± 970 | 8130 ± 730 | 5420 ± 570 | – | – | – | – | – | – | – | – | – | – | –
3 | CC(C)=CCC12OC(C)(C)C3CC(C=C4C(=O)c5c(OCC(=O)O)cccc5OC431)C2=O (stereo not drawn) [Compound 5] | 30 (≈ 13.2 µg/mL) | > 10000 | > 10000 | > 10000 | – | – | – | – | – | – | – | – | – | – | –
4 | CC(C)=CCC12OC(C)(C)C3CC(C=C4C(=O)c5c(OC(=O)N(C)C)cccc5OC431)C2=O (stereo not drawn) [Compound 8a] | – | – | – | – | – | – | – | 650 ± 80 | 1100 ± 100 | 60 (≈ 27.1 µg/mL) | 3090 ± 140 | 1730 ± 430 | 2320 ± 210 | 170 ± 40 | –
5 | CCN(CC)C(=O)Oc1cccc2c1C(=O)C1=CC3CC4C(C)(C)OC(CC=C(C)C)(C3=O)C14O2 (stereo not drawn) [Compound 8b] | 30 (≈ 14.4 µg/mL) | 1880 ± 140 | 2870 ± 70 | 470 ± 70 | 680 ± 80 | 1460 ± 90 | 2860 ± 20 | – | – | – | – | – | – | – | improved the permeability
6 | CCN(C)C(=O)Oc1cccc2c1C(=O)C1=CC3CC4C(C)(C)OC(CC=C(C)C)(C3=O)C14O2 (stereo not drawn) [Compound 8c] | – | – | – | – | – | – | – | 660 ± 160 | 1480 ± 140 | 30 (≈ 14 µg/mL) | 3050 ± 580 | 2560 ± 190 | 2750 ± 140 | 250 ± 120 | –

Further lines, with some results ahead:

Row | solubility (Water solubility by HPLC) [µM] | IC50 (HepG2; read-out: IC50 HepG2) [nM] | IC50 (HCT116; read-out: IC50 HCT116) [nM] | IC50 (MDA-MB-231; read-out: IC50 MDA-MB-231) [nM] | IC50 (A549/taxol; MTT, read-out: IC50 A549/taxol) [nM] | IC50 (A549/cisplatin; [7]) [nM] | IC50 (A549; read-out: IC50 A549) [nM] | Compound | IC50 (A549/taxol; [2]) [nM] | IC50 (A549/cisplatin; [3]) [nM] | solubility (Water solubility by HPLC; water) [µM] | IC50 (A549; read-out: IC50 A549, MTT, 72 h) [nM] | IC50 (HepG2; [4]) [nM] | IC50 (HCT116; [5]) [nM] | IC50 (MDA-MB-231; [6]) [nM] | permeability relative to DDO-6101 and GA [1]
7 | 40 (≈ 19.7 µg/mL) | 2310 ± 180 | 710 ± 40 | 580 ± 40 | 530 ± 80 | 1480 ± 250 | 9810 ± 170 | CC(C)=CCC12OC(C)(C)C3CC(C=C4C(=O)c5c(OC(=O)N6CCOCC6)cccc5OC431)C2=O (stereo not drawn) [Compound 8d] | – | – | – | – | – | – | – | improved the permeability
8 | 40 (≈ 19.1 µg/mL) | 990 ± 10 | 1060 ± 90 | 4400 ± 1500 | 12400 ± 290 | 5680 ± 150 | 8630 ± 190 | CC(C)=CCC12OC(C)(C)C3CC(C=C4C(=O)c5c(OC(=O)N6CCCC6)cccc5OC431)C2=O (stereo not drawn) [Compound 8e] | – | – | – | – | – | – | – | –
9 | 50 (≈ 24.6 µg/mL) | 950 ± 90 | 1020 ± 70 | 870 ± 160 | 1450 ± 180 | 2980 ± 170 | 2930 ± 20 | CC(C)=CCC12OC(C)(C)C3CC(C=C4C(=O)c5c(OC(=O)N6CCCCC6)cccc5OC431)C2=O (stereo not drawn) [Compound 8f] | – | – | – | – | – | – | – | –
10 | 20 (≈ 9.51 µg/mL) | 1750 ± 280 | 3150 ± 220 | 6800 ± 700 | 1100 ± 160 | 6700 ± 180 | 8450 ± 200 | CC(C)=CCC12OC(C)(C)C3CC(C=C4C(=O)c5c(OC(=O)N6CC=CC6)cccc5OC431)C2=O (stereo not drawn) [Compound 8h] | – | – | – | – | – | – | – | –
